Data set [1] is described as follows: Cytotoxicity against human […] cells. The class given is cell-based.
A short description of data set [2]: Therapeutic index, ratio of CC50 for human […] cells to EC50 for HIV1-3B. The data set is classed as cell-based. As to conditions: read-out: Ratio CC50/EC50.
Data set [3] relates to Human immunodeficiency virus 1. Briefly: Antiviral activity against HIV1-3B infected in human […] cells assessed as inhibition of virus-induced cytopathic effect. The data set is classed as functional, organism-based. As to conditions: Human immunodeficiency virus 1, 3B. (Protection from cytopathic effect is a common read-out in antiviral testing.)

This is an account of results in ChEMBL document CHEMBL1667812, “Compounds from Kadsura angustifolia with anti-HIV activity” (Bioorg Med Chem Lett, 2011).

Each structure is given as a SMILES string. In brackets after ≈: the same amount, converted by molar mass.

A word on the CC50: it is the concentration at which the toxic effect on the cells reaches its halfway point. A lower CC50 goes with harm at low concentration. Usually EC50 stands for the concentration giving half of the maximal effect.

As to `C=C(C)[C@@H]1C[C@H](O)[C@@H]2[C@]3(CC[C@]4(C)C([C@@](C)(O)CC/C=C(/C)C(=O)O)=C[C@H](O)[C@@]24C)C[C@]13CCC(=O)O` [ANGUSTIFIC ACID B], the half-maximal cytotoxic concentration (CC50) in data set [1] turned out to be 156 µg/mL (≈ 302 µM). The selectivity ratio in data set [2] was determined as 13.9. Further, the 50% effective concentration (EC50) in data set [3] came to 11.2 µg/mL (≈ 21.7 µM).

Turning to `CC1=CC[C@H]([C@](C)(O)[C@H]2CC[C@@]3(C)[C@@H]4C[C@H](O)[C@H]5C(C)(C)OC(=O)C=C[C@@]56C[C@@]46C[C@H](O)[C@]23C)OC1=O` [ANGUSTIFODILACTONE B], it took 182 µg/mL (≈ 354 µM) to reach half-maximal cytotoxicity in data set [1] (CC50). Besides, the selectivity ratio in data set [2] turned out to be 13.4. In addition, in data set [3], the concentration for a half-maximal effect (EC50) was determined as 13.6 µg/mL (≈ 26.4 µM).

`COc1c2c(cc3c1-c1c(cc4c(c1OC)OCO4)[C@H](OC(=O)c1ccccc1)[C@@](C)(O)[C@@H](C)C3)OCO2` [SCHISANTHERIN D]: the 50% cytotoxic concentration (CC50) in data set [1] was over 200 µg/mL. Further, the selectivity ratio in data set [2] is over 9.76. For the same molecule, in data set [3], the EC50 came to 20.5 µg/mL (≈ 39.4 µM).

In data set [1], `COc1cc2c(c(OC)c1OC)-c1c(cc(OC)c(OC)c1OC)C[C@](C)(O)[C@@H](C)C2` [SCHIZANDRIN] returned a 50% cytotoxic concentration (CC50) of over 200 µg/mL. Further, in data set [2], the selectivity ratio was over 12.7. In data set [3], the EC50 is 15.8 µg/mL (≈ 36.5 µM).

Turning to `C=C(C)[C@@H]1CC[C@@H]2[C@]3(CC[C@]4(C)[C@@H]([C@H](C)CC/C=C(/C)C(=O)O)CC[C@@]24C)C[C@]13CCC(=O)O` [NIGRANOIC ACID], half-maximal cytotoxicity in data set [1] (CC50) was put at 89 µg/mL (≈ 189 µM). For the same molecule, the selectivity ratio in data set [2] is 8.48. Besides, the EC50 in data set [3] came out at 10.5 µg/mL (≈ 22.3 µM).

In the case of `CC1(C)OC(=O)C=C[C@]23C[C@]24C[C@H](O)[C@]2(C)[C@@H]([C@@](C)(O)[C@H]5CC=C(CO)C(=O)O5)CC[C@@]2(C)[C@@H]4C[C@H](O)[C@@H]13` [ANGUSTIFODILACTONE A], the CC50 in data set [1] was 178 µg/mL (≈ 336 µM). For the same molecule, the selectivity ratio in data set [2] worked out at 13.4. The EC50 in data set [3] is 13.3 µg/mL (≈ 25.1 µM).

`C/C=C(/C)C(=O)O[C@H]1c2cc(OC)c(OC)c(OC)c2-c2c(cc3c(c2OC)OCO3)C[C@H](C)[C@]1(C)O` [SCHISANTHERIN B]: the CC50 in data set [1] was over 200 µg/mL. The selectivity ratio in data set [2] is over 9.05. Besides, in data set [3], the 50% effective concentration (EC50) is 22.1 µg/mL (≈ 42.9 µM).

In turn, `Cc1cn([C@H]2C[C@H](N=[N+]=[N-])[C@@H](CO)O2)c(=O)[nH]c1=O` [ZIDOVUDINE] registered a CC50 in data set [1] of over 200 µg/mL. Moreover, the selectivity ratio in data set [2] is over 60600. Moreover, the EC50 in data set [3] came out at 0.0033 µg/mL (≈ 0.0123 µM).

As to `C/C=C(/C)C(=O)O[C@H]1c2cc3c(c(OC)c2-c2c(cc4c(c2OC)OCO4)C[C@H](C)[C@]1(C)O)OCO3` [INTERIOTHERIN B], the CC50 in data set [1] was over 200 µg/mL. Further, the selectivity ratio in data set [2] is over 10.5. In addition, the EC50 in data set [3] worked out at 19 µg/mL (≈ 38.1 µM).

As for `C=C(C)[C@@H]1CC[C@@H]2[C@]3(CC[C@]4(C)C(=O)CC[C@@]24C)C[C@]13CCC(=O)O` [MICRANOIC ACID B], the half-maximal cytotoxic concentration (CC50) in data set [1] was determined as 176 µg/mL (≈ 511 µM). Moreover, in data set [2], the selectivity ratio was 11.2. Moreover, the EC50 in data set [3] came out at 15.7 µg/mL (≈ 45.6 µM).

`C=C(CC/C=C(/C)C(=O)O)C1=CC[C@@]2(C)[C@@H]3[C@H]4C[C@H](C(=C)C)[C@@]5(CCC(=O)O4)C[C@@]35CC[C@]12C` [ANGUSTIFIC ACID A] had a 50% cytotoxic concentration (CC50) in data set [1] of over 200 µg/mL. Moreover, the selectivity ratio in data set [2] is over 32.8. For the same molecule, the EC50 in data set [3] came to 6.11 µg/mL (≈ 13.1 µM).
